Where two headings read alike, the source gives them in different places.
Columns and labels:
AmpC β-lactamase [1] = molecular target: T1, AmpC β-lactamase (Escherichia coli, UniProt P00811); experiment: biochemical; type: biochemical
T1 construct: made in house
Description: FIG. 18. Representative IC50 curves. […] IC50 curves were obtained by measuring rates (in duplicates) at different inhibitor concentrations (x-axis) and by determining the residual activity (y-axis, in percentage). IC50 values were determined by non-linear regression and Ki values calculated using GraphPad software assuming competitive inhibition.
Sulfonamidomethaneboronic acids were dissolved in 100% DMSO at a concentration of 100 mM; more diluted stocks were prepared as necessary. […] The enzyme was expressed and purified as described (Usher, K. C. et al., Biochemistry 1998, 37, 16082-16092) and CENTA was purchased from Tydock Pharma.
Kinetic measurements were run at room temperature in 50 mM sodium-cacodylate pH 6.5 in the presence of 0.01% Triton-X to prevent non-specific inhibition via compound aggregation. […] (Kettner, C. A. and Shenvi, A. B., J. Biol. Chem. 1984, 259, 15106-15114) Reactions were performed in 1 mL cuvettes with 60 μM CENTA and initiated by adding 1.2 nM enzyme. […] (Weston, G. S. et al., J. Med. Chem. 1998, 41, 4577-4586) The first 180 sec of each reaction were used to measure initial rates. IC50 values were obtained by fitting binding data to a sigmoidal dose-response equation using GraphPad Prism (GraphPad software, Inc). Ki values were determined by the use of Cheng-Prusoff equation. (Cheng, Y. and Prusoff, W. H., Biochem. Pharmacol. 1973, 22, 3099-3108)

Elastase = Elastase inhibition; type: biochemical; conditions: Table 4h, Elastase vs AmpC
Text: (§1) To assess the selectivity of the new molecules we determined Ki values against three common serine proteases, Trypsin, Elastase and α-Chymotrypsin, as well as that of a class A β-lactamase, CTX-M-9 (Table 10) (Pouvreau L, et al. (1998), FEBS Lett 423:167-172; Del Mar E G, et al. (1980), Biochemistry 19:468-472; Rodriguez-Martinez J A, et al. (2009), Biotechnol Lett 31:883-887; Chen Y, et al. (2005), J Mol Biol 348:349-362).

Trypsin [2] = molecular target: T2, Trypsin (UniProt P00760); experiment: Trypsin inhibition; type: biochemical; conditions: Table 10, Trypsin
T2 construct: IC50 (Estimated from single concentration measurement); Ki
T2 sequence (P00760 1-246): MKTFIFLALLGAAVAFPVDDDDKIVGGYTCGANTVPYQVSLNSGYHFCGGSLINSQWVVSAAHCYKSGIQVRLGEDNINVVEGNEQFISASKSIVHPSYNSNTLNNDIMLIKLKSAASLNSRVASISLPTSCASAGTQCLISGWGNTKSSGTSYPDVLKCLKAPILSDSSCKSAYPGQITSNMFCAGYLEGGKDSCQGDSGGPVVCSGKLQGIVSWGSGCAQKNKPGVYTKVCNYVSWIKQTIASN
Text: as §1

[3] = molecular target: T3, α-chymotrypsin (bovine pancreatic) (Bos taurus, UniProt P00766); experiment: α-Chymotrypsin inhibition; type: biochemical; conditions: for activity at 100 µM: Table 4b, 100 μM inhibitor, read-out: Percentage activity with 100 μM inhibitor; for potency estimated from few doses: Table 4e, read-out: IC50 (Estimated from single concentration measurement); for Ki: Table 10, α-Chymotrypsin; for Selectivity vs AmpC (comparison of IC50 values): Table 4h, Chymotrypsin vs AmpC; for inhibition at 100 µM: read-out: Percentage inhibition with 100 μM inhibitor
T3 construct: purchased Sigma-Aldrich
Description: α-Chymotrypsin assays were performed in 50 mM Tris buffer pH 7.5 with 0.01% Triton-X. Inhibitor and 0.001 mg/mL enzyme were incubated at their final concentration for 10 min before the reaction was initiated by the addition of 200 μM N-succinyl-Ala-Ala-Pro-Phe p-nitroanilide and monitored at 410 nm.
as §1

CTX-M-9 β-lactamase = CTX-M-9 β-lactamase (Escherichia coli, UniProt Q9L5C8); experiment: biochemical; type: biochemical; conditions: for Ki: Table 8, read-out: Ki vs CTX-M-9; for Selectivity vs AmpC (comparison of IC50 values): Table 4h, CTX-M-9 vs AmpC; for potency estimated from few doses: read-out: IC50 (Estimated from single concentration measurement); for inhibition at 16 µM: read-out: Percentage inhibition with 16 μM inhibitor
Description: Reactions were initiated by the addition of 0.3 nM enzyme and monitored at 405 nm.
as §1

AmpC β-lactamase [4] = molecular target: T1, AmpC β-lactamase; type: biochemical; conditions: for type of inhibition: Lineweaver-Burk analysis, competition with substrate CENTA; for time dependence of inhibition (incubation effect, off-rate): enzyme incubation and dilution experiments
[5] = test system: clinical strains resistant to third-generation cephalosporins; experiment: MIC distribution of third-generation cephalosporins alone or with compounds over clinical strains; type: cell-based; conditions: for clinical isolates for which MICs dropped into the susceptible range (MICs≦1 μg/mL): cephalosporins combined with the compound; for MIC 25% percentile / MIC 75% percentile: third-generation cephalosporins in combination with the compound
Description: The anti-resistance activity of inhibitors was investigated by the determination of the minimum inhibitory concentrations (MICs) of the β-lactam/inhibitor combination necessary to inhibit the growth of clinically-isolated bacteria resistant to third-generation cephalosporins via expression of class A or class C β-lactamases (Table 6).
Susceptibility testing was performed and interpreted following the guidelines of CLSI. (Clinical and Laboratory Standards Institute, Performance standards for antimicrobial susceptibility testing, 20th Informational Supplement, M100-S20 2010) The compounds were dissolved in 50% DMSO, and dilutions were performed using Muller-Hinton medium. An adequate final concentration was obtained to determine the minimum inhibitory concentrations (MICs). The concentration of DMSO was maintained below 5%. The inhibitors were tested for synergy with the third-generation β-lactams ceftazidime and cefotaxime against several clinical bacteria. The ratio of β-lactams to inhibitors was 1:4. Each value reported reflects the average of three independent experiments. […] The Friedman's test and the Wilcoxon signed rank test were used to compare MIC values. Statistical significance was established at p<0.05.

Trypsin [6] = experiment: Trypsin inhibition; type: biochemical; conditions: Table 4h, Trypsin vs AmpC
Trypsin [7] = molecular target: T2, Trypsin; experiment: Trypsin inhibition; type: biochemical; conditions: for Percentage activity with 100 μM inhibitor: Table 4b; for Percentage inhibition with 100 μM inhibitor: Table 4c; for potency estimated from few doses: read-out: IC50 (Estimated from single concentration measurement), Table 4e

T1 sequence (P00811 20-377): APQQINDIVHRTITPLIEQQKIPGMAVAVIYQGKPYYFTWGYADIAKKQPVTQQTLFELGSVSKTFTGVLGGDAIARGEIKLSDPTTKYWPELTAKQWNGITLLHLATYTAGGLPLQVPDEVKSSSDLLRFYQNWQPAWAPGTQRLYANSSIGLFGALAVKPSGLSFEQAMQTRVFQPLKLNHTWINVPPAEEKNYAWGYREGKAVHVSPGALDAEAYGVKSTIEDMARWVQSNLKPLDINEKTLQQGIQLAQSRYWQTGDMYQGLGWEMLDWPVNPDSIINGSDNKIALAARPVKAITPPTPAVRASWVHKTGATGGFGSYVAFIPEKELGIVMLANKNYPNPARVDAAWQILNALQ
CTX-M-9 β-lactamase, sequence (Q9L5C8 29-291): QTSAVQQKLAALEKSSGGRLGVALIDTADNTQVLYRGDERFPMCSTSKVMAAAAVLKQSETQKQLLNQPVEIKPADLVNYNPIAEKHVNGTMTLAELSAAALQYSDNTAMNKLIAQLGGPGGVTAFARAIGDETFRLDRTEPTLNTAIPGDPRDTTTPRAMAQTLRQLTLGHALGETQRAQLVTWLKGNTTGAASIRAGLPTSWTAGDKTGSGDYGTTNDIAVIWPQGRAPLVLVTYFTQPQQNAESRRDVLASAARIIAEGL

Compound: N#Cc1ccc(S(=O)(=O)NCB(O)O)cc1 [CR162, [4-cyanobenzensulfonylamino]methaneboronic acid]
- Ki (AmpC β-lactamase [1]; Ki Vs AmpC, Table 7): 310 nM
- Ki (AmpC β-lactamase [1]; Ki vs AmpC, Table 8): 310 nM

Compound: CC(C)[C@H](NS(C)(=O)=O)B(O)O [CR175, (1R)-1-(Methylsulfonylamino)-2-methylpropaneboronic acid]
- Ki (AmpC β-lactamase [1]; Ki Vs AmpC, Table 7): 100000 nM

Compound: CC1(C)OB(c2ccccc2NS(=O)(=O)Cc2ccccc2)OC1(C)C [CR180, Pinacol 2-(phenylmethanesulfonylamino)phenylboronate]
- Ki (AmpC β-lactamase [1]; Table 7, read-out: Ki Vs AmpC): 200 nM

Compound: O=S(=O)(NCB(O)O)c1ccc(-c2nnn[nH]2)cc1 [CR157, [4-(3-tetrazol-5-yl)benzensulfonylamino]methaneboronic acid]
- Selectivity vs AmpC (comparison of IC50 values) (Elastase): 31309
- Ki (Trypsin [2]): 350 µM
- activity at 100 µM [3]: 90%
- potency estimated from few doses [3]: 900 µM
- Ki [3]: 224 µM
- Selectivity vs AmpC (comparison of IC50 values) [3]: 145161
- inhibition at 100 µM [3]: 10%
- IC50 (CTX-M-9 β-lactamase): 10.5 µM
- Ki (CTX-M-9 β-lactamase): 2.5 µM
- Selectivity vs AmpC (comparison of IC50 values) (CTX-M-9 β-lactamase): 1694
- potency estimated from few doses (CTX-M-9 β-lactamase): 6 µM
- inhibition at 16 µM (CTX-M-9 β-lactamase): 73%
- IC50 (AmpC β-lactamase [1]): 0.0062 µM
- Ki (AmpC β-lactamase [1]; Ki): 0.8 to 1.3 nM
- Ki (AmpC β-lactamase [1]; Ki (from multi- or single concentration measurements), Table 4g): 1.2 nM
- Ki (AmpC β-lactamase [1]; Ki Vs AmpC, Table 7): 1.2 nM
- Ki (AmpC β-lactamase [1]; Ki vs AmpC, Table 8): 1.2 nM
- Ki (AmpC β-lactamase [1]; Ki, Table 5): 1.2 nM
- Ki (AmpC β-lactamase [1]; Ki, Table 10, AmpC): 1.2 nM
- Ligand efficiency (AmpC β-lactamase [1]; Table 5): 0.63
- type of inhibition (AmpC β-lactamase [4]): competitive
- time dependence of inhibition (incubation effect, off-rate) (AmpC β-lactamase [4]): incubation effect owing to slow off-rates
- clinical isolates for which MICs dropped into the susceptible range (MICs≦1 μg/mL) [5]: 25%
- MIC 25% percentile [5]: 1.5 µg/mL
- MIC 75% percentile [5]: 4.0 µg/mL
- Selectivity vs AmpC (comparison of IC50 values) (Trypsin [6]): 306452
- Percentage activity with 100 μM inhibitor (Trypsin [7]): 95
- Percentage inhibition with 100 μM inhibitor (Trypsin [7]): 5
- potency estimated from few doses (Trypsin [7]): 1900 µM

Compound: Pinacol(isopropylsulfonylamino)methaneboronate [GBS22]
- Ki (AmpC β-lactamase [1]; Table 7, read-out: Ki Vs AmpC): 100 nM

Compound: CCOc1ccc2ccccc2c1S(=O)(=O)NCB(O)O [Compound 11, (2-Ethoxy-naphthalene-1-sulfonylamino)methaneboronic acid]
- Ki (AmpC β-lactamase [1]; read-out: Ki): 670 nM

Compound: O=C(Cc1cccs1)N[C@@H](Cc1cccc(C(=O)O)c1)B(O)O [Compound 17c, reference compound]
- Ki (AmpC β-lactamase [1]; Table 1, read-out: Ki): 39 nM

Compound: CC(C)[C@H](NS(=O)(=O)Cc1ccccc1)B(O)O [CR173, (1R)-1-(Phenylmethanesulfonylamino)-2-methylpropaneboronic acid]
- Ki (AmpC β-lactamase [1]; Ki Vs AmpC, Table 7): 13000 nM

Compound: C[C@H](NS(=O)(=O)Cc1ccccc1)B(O)O [GBS34, (1R)-1-(Phenylmethanesulfonylamino)-1-ethaneboronic acid]
- Ki (AmpC β-lactamase [1]; Ki Vs AmpC, Table 7): 310 nM

Compound: O=S(=O)(NCB(O)O)c1ccc(-c2nnn[nH]2)cc1C(F)(F)F [CR192, [4-(3-tetrazol-5-yl)-2-trifluoromethyl-benzensulfonylamino]methaneboronic acid]
- Selectivity vs AmpC (comparison of IC50 values) (Elastase): 34091
- Ki (Trypsin [2]): 442 µM
- activity at 100 µM [3]: 85%
- potency estimated from few doses [3]: 567 µM
- Ki [3]: 141 µM
- Selectivity vs AmpC (comparison of IC50 values) [3]: 1416667
- inhibition at 100 µM [3]: 15%
- IC50 (CTX-M-9 β-lactamase): 5 µM
- Ki (CTX-M-9 β-lactamase): 1.8 µM
- Selectivity vs AmpC (comparison of IC50 values) (CTX-M-9 β-lactamase): 11948
- potency estimated from few doses (CTX-M-9 β-lactamase): 5 µM
- inhibition at 16 µM (CTX-M-9 β-lactamase): 77%
- IC50 (AmpC β-lactamase [1]): 0.0004 µM
- time until substrate hydrolysis rates converge (equilibrium) (AmpC β-lactamase [1]; 50 pM AmpC, 500 pM inhibitor, with or without 5 minutes pre-incubation): 10 to 15 min
- Ki (AmpC β-lactamase [1]; Table 4g, read-out: Ki (from multi- or single concentration measurements)): 0.05 nM
- Ligand efficiency (AmpC β-lactamase [1]; Table 5): 0.60
- Ki (AmpC β-lactamase [1]; Table 5, read-out: Ki): 0.05 nM
- Ki (AmpC β-lactamase [1]; Table 7, read-out: Ki Vs AmpC): 0.05 nM
- Ki (AmpC β-lactamase [1]; Table 8, read-out: Ki vs AmpC): 0.05 nM
- Ki (AmpC β-lactamase [1]; Table 10, AmpC, read-out: Ki): 0.05 nM
- improved affinity compared to CR157 (AmpC β-lactamase [1]; ratio of Ki values): 24 fold
- Ki (AmpC β-lactamase [1]; running text and FIG. 18, substrate CENTA 105 μM, read-out: Ki): 0.05 nM
- type of inhibition (AmpC β-lactamase [4]): competitive
- time dependence of inhibition (incubation effect, off-rate) (AmpC β-lactamase [4]): slow off-rate
- clinical isolates for which MICs dropped into the susceptible range (MICs≦1 μg/mL) [5]: 50%
- MIC 25% percentile [5]: 1.0 µg/mL
- MIC 75% percentile [5]: 2.0 µg/mL
- Selectivity vs AmpC (comparison of IC50 values) (Trypsin [6]): 6000000
- Percentage activity with 100 μM inhibitor (Trypsin [7]): 96
- Percentage inhibition with 100 μM inhibitor (Trypsin [7]): 4
- potency estimated from few doses (Trypsin [7]): 2400 µM

Compound: O=S(=O)(Cc1ccccc1)N[C@@H](Cc1ccccc1)B(O)O [Compound 16, (1R)-1-(phenylmethanesulfonylamino)-2-phenylethaneboronic acid]
- Ki (AmpC β-lactamase [1]; Table 1, read-out: Ki): 3720 nM
- Ki (AmpC β-lactamase [1]; Table 7, read-out: Ki Vs AmpC): 3720 nM
